pIC50: −log10 of the molar value. Values joined by “and” are separate entries in the source; they are usually repeats but may differ in a detail not shown here. Equal entries are not always repeated. Where two headings read alike, the source gives them in different places.
Legend:
rec A(H1N1)pdm09 [1] = conditions: mouse, in vivo
[2] = test system: pH1N1 influenza virus recovered from lungs of IS mice; test: microbe, parasite or virus in culture; assay type: cell-based
rec A(H1N1)pdm09 [3] = test system: rec A(H1N1)pdm09; design: species or system C57BL/6 mice; conditions: mouse, in vivo
rec A(H1N1)pdm09 [4] = test system: rec A(H1N1)pdm09; design: species or system C57BL/6 mice; conditions: mouse, in vivo; remark: listed apart in the source
[5] = test system: NA of pH1N1 influenza virus recovered from lungs of IS mice; assay type: biochemical, influenza A(H1N1)pdm09; conditions: read-out: NAI Assay (Oseltamivir) Mean IC50
rec A(H1N1)pdm09 [6] = test system: rec A(H1N1)pdm09; design: species or system C57BL/6 mice; conditions: mouse, in vivo; remark: listed apart in the source
influenza = test system: influenza; design: method as in earlier work; conditions: infected IC young adults; cited from earlier work

Compound	development of antibodies (microneutralization) (rec A(H1N1)pdm09 [1])	pIC50 ([2]; read-out: PRA Assay (Favipiravir) IC50; virus from IS mice treated with oseltamivir 20 mg/kg + favipiravir 20 mg/kg BID, day 15; individual mice; Table 1)	pIC50 ([2]; unidentified influenza virus, in Mus musculus, 288 h, virus from not treated IS mice, day 12; individual mice; Table 1 (exp 2); read-out: PRA Assay (Favipiravir) IC50)	pIC50 ([2]; unidentified influenza virus, in Mus musculus, 360 h, virus from not treated IS mice, day 15; individual mice; Table 2 (exp 3); read-out: PRA Assay (Favipiravir) IC50)	pIC50 ([2]; virus from IS mice treated with favipiravir 20 mg/kg BID, day 15; individual mice; Table 1; read-out: PRA Assay (Favipiravir) IC50)	pIC50 ([2]; virus from IS mice treated with favipiravir 50 mg/kg BID, day 15; individual mice; Table 2; read-out: PRA Assay (Favipiravir) IC50)	pIC50 ([2]; virus from IS mice treated with oseltamivir 20 mg/kg + favipiravir 20 mg/kg BID, day 15; individual mice; Table 1; read-out: PRA Assay (Favipiravir) IC50)	pIC50 ([2]; virus from IS mice treated with oseltamivir 20 mg/kg + favipiravir 50 mg/kg BID, day 15; individual mice; Table 2; read-out: PRA Assay (Favipiravir) IC50)	pIC50 ([2]; virus from not treated IS mice, day 12; individual mice; Table 1 (exp 2); read-out: PRA Assay (Favipiravir) IC50)	pIC50 ([2]; virus from not treated IS mice, day 15; individual mice; Table 2 (exp 3); read-out: PRA Assay (Favipiravir) IC50)	favipiravir susceptibility phenotype by PRA ([2]; viruses recovered on day 15 p.i., exp 3)	MDD (mean days of death) (rec A(H1N1)pdm09 [3])	body weight losses over a 21-day period (rec A(H1N1)pdm09 [3])	decrease of mortality compared to the non-treated group (rec A(H1N1)pdm09 [3]) [%]	survival rate (rec A(H1N1)pdm09 [3]) [%]	MDD (mean days of death) (rec A(H1N1)pdm09 [3]; 20 mg/kg)	LVTs vs non-treated and oseltamivir-treated mice (rec A(H1N1)pdm09 [4])	pIC50 [5]	levels of IL-6, TNF-α and IFN-γ after treatment (rec A(H1N1)pdm09 [6])	nasal wash levels of IL-6, TNF-α and IFN-γ (influenza)
O=P1(N(CCCl)CCCl)NCCCO1 (stereo not drawn) [CP, cyclophosphamide]	none of them developed antibodies																			
NC(=O)c1nc(F)cnc1O [Favipiravir, 6-fluoro-3-hydroxy-2-pyrazinecarboxamide]		4.85	4.86	4.94	4.97 and 4.89	4.91	4.89	4.94 and 4.98 and 5.02	4.98 and 5.02 and 5.00	5.07	did not show a resistant phenotype	18	reduced	50	50	13 and 16.6	statistically lower			
CCOC(=O)C1=C[C@@H](OC(CC)CC)[C@H](NC(C)=O)[C@@H](N)C1 [Oseltamivir, oseltamivir]												14.7	reduced		50	13 and 16.6		9.22 and 9.10	not reduced	reduced
